Results from ChEMBL document CHEMBL2073888, “Dehydrothyrsiferol does not modulate multidrug resistance-associated protein 1 resistance: a functional screening system for MRP1 substrates” (Int J Mol Med, 2002).

Assays:
[1] = target: Multidrug resistance-associated protein 1 (Homo sapiens, UniProt P33527); test: TP_TRANSPORTER: inhibition of CFDA efflux (CFDA: 1 uM, DHT: 5-50 uM) in HL60/Adr cells; format: functional, cell-based
[2] = target: Multidrug resistance-associated protein 1 (MRP1) (Homo sapiens, UniProt P33527); test: TP_TRANSPORTER: inhibition of CFDA efflux (CFDA: 1 uM, Genistein: 10 mM) in HL60/Adr cells; format: functional, cell-based; conditions: probe CFDA, read-out: Activity
Multidrug resistance-associated protein 1 (MRP1), sequence (P33527 whole entry): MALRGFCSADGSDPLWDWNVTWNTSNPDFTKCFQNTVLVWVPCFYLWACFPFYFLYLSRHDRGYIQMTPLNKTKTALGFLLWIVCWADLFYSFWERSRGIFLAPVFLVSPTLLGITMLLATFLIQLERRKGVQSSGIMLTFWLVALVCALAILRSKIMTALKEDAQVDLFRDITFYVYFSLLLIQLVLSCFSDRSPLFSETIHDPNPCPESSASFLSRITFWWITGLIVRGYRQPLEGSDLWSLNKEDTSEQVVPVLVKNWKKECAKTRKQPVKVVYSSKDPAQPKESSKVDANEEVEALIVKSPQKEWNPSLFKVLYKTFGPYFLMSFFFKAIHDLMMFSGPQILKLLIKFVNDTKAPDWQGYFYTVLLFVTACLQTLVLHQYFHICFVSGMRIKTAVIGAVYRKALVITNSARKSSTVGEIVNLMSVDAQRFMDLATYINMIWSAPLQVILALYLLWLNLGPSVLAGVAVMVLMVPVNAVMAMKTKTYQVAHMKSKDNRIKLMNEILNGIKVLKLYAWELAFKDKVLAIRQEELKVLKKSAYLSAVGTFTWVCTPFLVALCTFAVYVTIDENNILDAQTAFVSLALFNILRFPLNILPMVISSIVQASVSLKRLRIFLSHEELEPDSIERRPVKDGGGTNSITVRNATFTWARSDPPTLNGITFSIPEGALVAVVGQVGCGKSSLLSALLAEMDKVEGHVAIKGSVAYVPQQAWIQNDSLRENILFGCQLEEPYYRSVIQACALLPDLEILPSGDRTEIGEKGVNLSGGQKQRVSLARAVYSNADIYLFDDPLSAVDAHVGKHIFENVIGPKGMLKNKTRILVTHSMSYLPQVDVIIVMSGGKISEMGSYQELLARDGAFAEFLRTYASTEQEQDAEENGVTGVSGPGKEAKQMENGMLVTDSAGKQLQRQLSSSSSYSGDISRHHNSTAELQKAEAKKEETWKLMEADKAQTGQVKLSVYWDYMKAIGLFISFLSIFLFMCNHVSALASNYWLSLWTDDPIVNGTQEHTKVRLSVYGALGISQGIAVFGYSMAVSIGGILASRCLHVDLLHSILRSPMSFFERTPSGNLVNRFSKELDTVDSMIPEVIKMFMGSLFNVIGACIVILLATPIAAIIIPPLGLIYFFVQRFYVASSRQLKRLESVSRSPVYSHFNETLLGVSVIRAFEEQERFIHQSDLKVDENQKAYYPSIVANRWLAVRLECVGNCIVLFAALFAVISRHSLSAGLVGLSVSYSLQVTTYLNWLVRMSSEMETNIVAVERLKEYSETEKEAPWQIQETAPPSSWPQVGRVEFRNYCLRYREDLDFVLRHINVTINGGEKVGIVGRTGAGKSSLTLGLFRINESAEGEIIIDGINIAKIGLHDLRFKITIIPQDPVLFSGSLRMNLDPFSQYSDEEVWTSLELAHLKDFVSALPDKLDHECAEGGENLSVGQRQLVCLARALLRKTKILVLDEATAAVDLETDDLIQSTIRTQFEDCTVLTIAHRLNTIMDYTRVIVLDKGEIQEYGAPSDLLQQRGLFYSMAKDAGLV

Multidrug resistance-associated protein 1, sequence (P33527 whole entry): as above

Row | Structure (SMILES) | Activity [1] | inhibition at 10 mM [2]
1 | C=C(CC[C@H](O)[C@@]1(C)CC[C@H](C(C)(C)O)O1)[C@H]1CC[C@H]2O[C@@H]([C@]3(C)CC[C@@H](Br)C(C)(C)O3)CC[C@]2(C)O1 [DEHYDROTHYRSIFEROL] | is not an inhibitor [-] | –
2 | O=c1c(-c2ccc(O)cc2)coc2cc(O)cc(O)c12 [GENISTEIN] | – | 94.6%
